The text below walks through data of patent publication US10697019B2, “Method of diagnosis and prognosis” (IMPERIAL COLLEGE INNOVATIONS LIMITED, priority 2011, dated 2020).

In this experiment the test system is panel of 29 cancer cell lines. The experiment is described as follows: [3H]thymidine incorporation assay of Z-DTP-induced killing, correlated with Gadd45β mRNA expression (qRT-PCR). In kind it is cell-based. The following applies: 10 μM Z-DTP2 for 144 hrs, Pearson correlation p<0.01. An excerpt: The significance of the correlation co-efficient between the two parameters is p<0.01 (Pearson correlation as calculated by GraphPad software).
For example, primary cell from multiple myeloma patients can be analysed for levels of Gadd45β expression, and patients with high levels of this expression can be deemed as those who will receive the most benefit from treatment with Gadd45β inhibitors.
In order to determine the basis for the different sensitivity of tumour cell lines to Z-DTP-induced killing, we measured levels of Gadd45β expression in a panel of 29 tumour cell lines or different tissues of origin by using quantitative real-time polymerase chain reaction (qRT-PCT) and correlated these levels with the degree of susceptibility of these cell lines to the cytotoxic activity of Z-DTPs. […] Experimental Ct values were normalized to β-actin, and relative mRNA expression calculated versus a reference sample (i.e. mRNA from HEK-293T cells). The sensitivity of cancer cell lines to Z-DTP-induced killing was analysed as described above by performing [^3H]thymidine incorporation assays after treatment of the cells with 10 μM of Z-DTP2 for 144 hrs. […] The significance of the correlation coefficient between the 2 parameters' domain was calculated by Pearson correlation, which quantifies the association between two variables, using the GraphPad software.
(Dividing cells build labelled thymidine or BrdU into new DNA.)

[ ]: non-standard residue; d: D form. The star is where a group is joined. Cbz = O=C(OCc1ccccc1)*

For “Z-DTP2: tetrapeptide Tyr-Glu-Arg-Phe, amino acids in the D configuration, NH2 group at the C terminal, benzyloxycarbonyl group at the N terminal; specific Gadd45β inhibitor (Cbz-[dY][dE][dR][dF]-NH2)”, the “cancer cell sensitivity to Z-DTP-induced killing versus levels of endogenous Gadd45β expression” value is “correlates with a very high degree of statistical significance”.
